Where a SMILES comes first, the peptide text is derived from it. Where no end group is shown, it is not given here. The star is where a group is joined. X1 = Cc1nn(CCN(CCN)CCCC(=O)NCCC[n+]2c3cc(N(C)C)ccc3cc3ccc(N(C)C)cc32)c(C)c1CC(=O)*; pyrazolyl‑diamine chelator carrying TPP = not defined here
Key:
human GRPR = biological target: T1, human GRPR (Homo sapiens, UniProt P30550); test: Competitive radioligand binding assay against [125I-Tyr4]-BBN; conditions: PC3 cells, 90 min at 4 °C, one-site model, mean ± SEM of three independent experiments; read-out: IC50, displacement of [125I-Tyr4]-BBN from GRPR
T1 construct: endogenous in cells; host or cells: PC3 human prostate carcinoma cells (intact, attached)
T1 sequence (P30550 whole entry): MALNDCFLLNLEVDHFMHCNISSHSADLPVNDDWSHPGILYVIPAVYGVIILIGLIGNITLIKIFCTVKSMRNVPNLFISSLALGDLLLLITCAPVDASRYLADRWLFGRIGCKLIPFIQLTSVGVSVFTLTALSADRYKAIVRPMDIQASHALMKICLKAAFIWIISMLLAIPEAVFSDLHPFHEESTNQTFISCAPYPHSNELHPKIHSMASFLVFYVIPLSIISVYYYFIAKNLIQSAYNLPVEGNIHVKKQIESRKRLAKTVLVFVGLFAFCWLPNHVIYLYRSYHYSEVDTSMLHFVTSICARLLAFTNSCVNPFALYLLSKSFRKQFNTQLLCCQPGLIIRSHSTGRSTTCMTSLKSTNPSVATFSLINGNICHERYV
Experimental: The in vitro cell-binding assays were performed with the prostate carcinoma cell line PC3. Briefly, cells were seeded in 24-well plates (150,000 cells per well) and allowed to attach overnight. […] The competition was interrupted by discarding supernatants and washing the cells twice with ice-cold PBS with 0.2% BSA. Cells were then lysed with 1 M NaOH treatment (2 × 0.4 mL, 10 min at 37 °C). Lysates were collected and counted for their radioactivity content in an automated γ–counter (HIDEX AMG, Hidex, Turku, Finland).

PC3 cells [1] = test: Clonogenic assay; assay type: cell-based, human; conditions: highest concentration 10^−7 M (range 10^−10–10^−7 M), 24 h at 37 °C
Experimental: PC3 cells were seeded at a density of 50000 cells per well in a 24 well-plate and allowed to attach overnight. […] Immediately, after incubation, cells were seeded out in appropriate dilution to form colonies, in 2 weeks, with at least 50 cells. Colonies were fixed with methanol: glacial acetic acid (3:1) and stained with Giemsa (4%).
The Plating Efficiency (PE), ratio of the number of colonies to the number of cells seeded, and the Survival Fraction (SF), number of colonies that arise after treatment of cells, expressed in terms of PE, were obtained following the methodology described in [66], where:(1) PE=number of colonies formed /number of cells seeded×100% (2) SF=number of colonies formed after treatment/number of cells seeded×PE

PC3 cells [2] = test: Confocal fluorescence microscopy colocalization with MitoTracker; assay type: cell-based, human; conditions: 1 µM, 30 min with MitoTracker Deep Red FM, fixed
Experimental: To study the intracellular location of uptaken Re-AO-BBN, cells were washed with PBS, incubated with MitoTracker™ Deep Red FM (1:1000, Invitrogen, Bleiswijk, The Netherlands) and Re-AO-BBN (1 µM) in FluoroBrite™ DMEM with high D-glucose for 30 min, fixed with 4% paraformaldehyde (in PBS) at 4 °C for 20 min, washed with PBS, incubated with Hoechst (0.2 µg/mL) for 1 h, washed and left submerged in PBS. Cells were imaged on a Leica TCS SP8 confocal microscope, equipped with a HC Plan Apo 20 × /0.75 dry objective, 405, 488 and 638 nm laser lines, PMT (MitoTracker) and HyD (Hoechst, Re-AO-BBN) detectors. The pinhole was set to 1 airy unit and Nyquist sampling was met in xyz (132 × 132 × 685 nm). Mitochondria accumulation was assessed by the Pearson coefficient between Re-AO-BBN and MitoTracker fluorescence intensities, considering an appropriate threshold.

PC3 cells [3] = test: γ-H2AX assay and foci analysis; assay type: cell-based, human; conditions: 1.85 MBq, 24 h at 37 °C
Experimental: PC3 cells were seeded at a density of 10000 cells per well in an eight-well chamber slide and allowed to attach overnight. […] PC3 cells were washed three times with PBS, and fixed with 4% formaldehyde in PBS for 15 min. After washing with PBS, cells were permeabilized with Triton X-100 (0.5%) at room temperature for 5 min followed by two washing steps with 1% BSA in PBS. Then, cells were incubated with an anti-γ-H2AX primary antibody (mouse anti-γ-H2AX (ser139), Stressgen) at 2 μg/mL for 1 h. After being washed twice with 1% BSA in PBS, cells were incubated with a Texas Red-X-conjugated anti-mouse secondary antibody at […] for 1 h, followed by three washing steps with PBS. Cells were finally mounted in anti-fade mounting media with DAPI (Vectashield H-1200, Vector Laboratories).
Cells were analyzed under 64x magnification. Several high-quality 2D images were randomly collected in each slide and analyzed using the pipeline Speckle Count from the freeware CellProfiler. At least 200 nuclei were analyzed per experiment per dose. Statistical analysis was performed with Origin 7.5 software.

PC3 cells [4] = test: Mitochondrial ToxGlo assay (cell membrane integrity and cellular ATP levels); conditions: 2 h at 37 °C, HBSS with galactose and 1% BSA, CCCP 10 μM
Experimental: PC3 cells were seeded at a density of 10,000 cells per well in a 96 well-plate and allowed to attach overnight. […] Cells incubated only with this medium were used as a basal control and cells incubated with CCCP (10 μM) as a positive control for mitochondrial inhibition. After the 2 h, the Mitochondrial Toxglo assay was performed according to the manufacturer’s instructions (Promega). Assays were performed in triplicate.

Compound: Re-TPP-BBN: Re(I) congener of 99mTc-TPP-BBN, surrogate of the 99mTc complex ({pyrazolyl‑diamine chelator carrying TPP}-GGGQWAVGHLM; ends and bridges not checked; also: Re(I) complex of the chelator)
- IC50 (human GRPR): 0.38 ± 0.14 nM

Compound: CSCC[C@H](NC(=O)[C@H](CC(C)C)NC(=O)[C@H](Cc1c[nH]cn1)NC(=O)CNC(=O)[C@@H](NC(=O)[C@H](C)NC(=O)[C@H](Cc1c[nH]c2ccccc12)NC(=O)[C@H](CCC(N)=O)NC(=O)CNC(=O)CNC(=O)CNC(=O)Cc1c(C)nn(CCN(CCN)CCCC(=O)NCCC[n+]2c3cc(N(C)C)ccc3cc3ccc(N(C)C)cc32)c1C)C(C)C)C(N)=O [Re-AO-BBN] (X1-GGGQWAVGHLM-NH2; C-terminus assumed)
- effect on survival of PC3 cells compared with the control (PC3 cells [1]): no effect
- Pearson's Correlation Coefficient (PCC) of colocalization with Mitotracker dye (PC3 cells [2]): 0.31

Compound: [O]=[99Tc](=[O])(=[O])[O-] [^99mTcO4^−]
- foci number / DNA damage relative to the control (in words) (PC3 cells [3]): did not cause any increase

Compound: cyanide-m-chlorophenylhydrazone [CCCP]
- cell membrane integrity / viability versus control (PC3 cells [4]; radiocomplexes 0.74 and 1.85 MBq (loss at the highest activity)): did not compromise their viability
- ATP production / ATP levels versus control cells (PC3 cells [4]; radiocomplexes 0.74 and 1.85 MBq): significantly reduced the ATP production

Source: PMC9266350, “Searching for a Paradigm Shift in Auger-Electron Cancer Therapy with Tumor-Specific Radiopeptides Targeting the Mitochondria and/or the Cell Nucleus” (International Journal of Molecular Sciences, 2022)
